{"source": "paper PMC3461044", "about": "“Probing Protein Sequences as Sources for Encrypted Antimicrobial Peptides” (PLoS ONE, 2012)", "key": {"[1]": {"tested_on": "Phakopsora pachyrhizi", "assay": "Asian rust tolerance assay of transformed soybean plants", "format": "in vivo, Phakopsora pachyrhizi on Glycine max", "conditions": "sprayed with 10^6 spores/mL, 15 days, control plants 45±8", "description": "The gene encoding the peptide gb|ABM17058.1|(213–231), primary structure […], was synthesized by Epoch Life Science Inc. (Sugar Land, TX, USA) and cloned into the vector pBluKSPOXDCAHAS replacing the oxdc gene. The vector was used to transform soybean plants as previously described, [31]. Six intragenic soybean lines were tested for tolerance to Asian rust (Phakopsora pachyrhizi). The plants (20 plants per line at V3 stage) were sprayed with a spore suspension (10^6 spores/mL) and maintained in the greenhouse at room temperature and sprinkling 4 times a day. Leaves were photographed after 15 days and the number of pustules per square centimeter counted."}, "[2]": {"tested_on": "Phakopsora pachyrhizi spores", "assay": "In situ germination inhibition of Phakopsora pachyrhizi spores on Glycine max leaves' surface", "format": "cell-based", "conditions": "8 µg/mL (3 µM) peptide co-incubated with 3.5×10^5/ml spores on G. max leaf disks, 7 days, 21°C; average of three experiments", "description": "P. pachyrhizi spores were scraped off infected G. max leaves and were frozen at −80°C. Prior to the in situ assay, spores were dissolved in Mili-Q® water, incubated at 40°C for 40 min and quantified using a Neubauer chamber. […]. BR-16). Spores were then co-incubated with fifty microliters of a peptide solution at concentrations ranging from 8 to 128 µg/mL. Leaves were immediately placed on a Petri dish containing moist filter papers and incubated at 21°C under 12 h-photoperiod and photographed after 7 days. Images were used to measure the infected area using the QUANT v1.0.1 software."}, "[3]": {"tested_on": "Xanthomonas axonopodis pv. glycines", "conditions": "in vitro growth", "description": "MICs were determined using the M7-A6 protocol from the Clinical Laboratory Standards Institute (CLSI). […] Initial bacterium inoculum of ∼10^5 colony forming units/mL were transferred, along with serial 2-fold dilutions of each peptide to 96-well plates and incubated for 12 h. […] For each peptide concentration, optical density (OD600) readings were subtracted from that of the growth medium and divided by the positive control (100% bacterial growth). Inhibitory assays for X. axonopodis pv. glycines were conducted by the same methodology with longer incubation time (48 h)."}}}
{"sequence": "MIKAFKEATKVDKVVVLWTA [gb|ABM17058.1|(213–231), IAP, fragment of G. max D-myo-inositol 3-phosphate synthase; expressed in transformed soybean lineages 72.14.5 and 72.14.9]", "values": [{"measurement": "number of uredia per foliar area", "setting": "[1]; transformed G. max lineage 72.14.5, V3 stage", "result": "7±3", "unit": "pustules/cm^2"}, {"measurement": "number of uredia per foliar area", "setting": "[1]; transformed G. max lineage 72.14.9, V3 stage", "result": "12±3", "unit": "pustules/cm^2"}]}
{"sequence": "RWRFLRKISSVHMFSVKALDDFRQL [Gm0025x00667(75–100)]", "values": [{"measurement": "infected area", "setting": "[2]", "result": "approximately 50 % of the control"}, {"measurement": "concentration that inhibited the in vitro growth of X. axonopodis pv. glycines", "setting": "[3]", "result": 5, "unit": "µM"}]}
